In ChEMBL document CHEMBL4507303, “Data for DCP probe TP-004” (2021):

Columns and labels:
[1] = target: Myosin light chain kinase 2, skeletal/cardiac muscle (Homo sapiens) (UniProt Q9H1R3); conditions: Compound concentration 1000.0 nM
[2] = target: Vascular endothelial growth factor receptor 2 (Homo sapiens) (UniProt P35968); conditions: Compound concentration 1000.0 nM
[3] = target: BDNF/NT-3 growth factors receptor (Homo sapiens) (UniProt Q16620); conditions: Compound concentration 1000.0 nM
[4] = target: 5-hydroxytryptamine receptor 1B (Homo sapiens) (UniProt P28222); conditions: Compound concentration 10.0 uM
[5] = system: Epidermal growth factor receptor (Homo sapiens), P00533 [UNDEFINED MUTATION]; conditions: Compound concentration 1000.0 nM
[6] = target: Tyrosine-protein kinase Tec (Homo sapiens) (UniProt P42680); conditions: Compound concentration 1000.0 nM
[7] = target: Dual specificity tyrosine-phosphorylation-regulated kinase 1A (Homo sapiens) (UniProt Q13627); conditions: Compound concentration 1000.0 nM
[8] = target: Activin receptor type-1B (Homo sapiens) (UniProt P36896); conditions: Compound concentration 1000.0 nM
[9] = target: Mitogen-activated protein kinase kinase kinase 6 (Homo sapiens) (UniProt O95382); conditions: Compound concentration 1000.0 nM
[10] = system: ALK tyrosine kinase receptor (Homo sapiens), Q9UM73 [L1196M]; conditions: Compound concentration 1000.0 nM
[11] = target: Serine/threonine-protein kinase tousled-like 1 (Homo sapiens) (UniProt Q9UKI8); conditions: Compound concentration 1000.0 nM
[12] = target: Tyrosine-protein kinase BTK (Homo sapiens) (UniProt Q06187); conditions: Compound concentration 1000.0 nM
[13] = target: Sodium-dependent dopamine transporter (Homo sapiens, UniProt Q01959); conditions: Compound concentration 10.0 uM
[14] = target: Angiopoietin-1 receptor (Homo sapiens) (UniProt Q02763); conditions: Compound concentration 1000.0 nM
[15] = target: Vascular endothelial growth factor receptor 1 (Homo sapiens) (UniProt P17948); conditions: Compound concentration 1000.0 nM
[16] = system: Phosphatidylinositol 4,5-bisphosphate 3-kinase catalytic subunit alpha isoform (Homo sapiens), P42336 [H1047Y]; conditions: Compound concentration 1000.0 nM
[17] = target: Dual specificity protein kinase CLK4 (Homo sapiens) (UniProt Q9HAZ1); conditions: Compound concentration 1000.0 nM
[18] = target: Serine/threonine-protein kinase 17A (Homo sapiens) (UniProt Q9UEE5); conditions: Compound concentration 1000.0 nM
[19] = system: Phosphatidylinositol 4,5-bisphosphate 3-kinase catalytic subunit alpha isoform (Homo sapiens), P42336 [H1047L]; conditions: Compound concentration 1000.0 nM
[20] = target: Interleukin-1 receptor-associated kinase 4 (Homo sapiens) (UniProt Q9NWZ3); conditions: Compound concentration 1000.0 nM
[21] = target: Cyclin-dependent kinase 8 (Homo sapiens) (UniProt P49336); conditions: Compound concentration 1000.0 nM
[22] = target: Calcium/calmodulin-dependent protein kinase type II subunit delta (Homo sapiens) (UniProt Q13557); conditions: Compound concentration 1000.0 nM
[23] = target: Protein kinase C delta type (Homo sapiens) (UniProt Q05655); conditions: Compound concentration 1000.0 nM
[24] = system: Epidermal growth factor receptor (Homo sapiens), P00533 [L858R,T790M]; conditions: Compound concentration 1000.0 nM
[25] = target: Dual serine/threonine and tyrosine protein kinase (Homo sapiens) (UniProt Q6XUX3); conditions: Compound concentration 1000.0 nM
[26] = target: Cyclin-dependent kinase 4 (Homo sapiens) (UniProt P11802); conditions: Compound concentration 1000.0 nM
[27] = target: Tyrosine-protein kinase Srms (Homo sapiens) (UniProt Q9H3Y6); conditions: Compound concentration 1000.0 nM
[28] = target: Phosphatidylinositol 4-phosphate 5-kinase type-1 gamma (Homo sapiens) (UniProt O60331); conditions: Compound concentration 1000.0 nM
[29] = target: 5-hydroxytryptamine receptor 7 (Homo sapiens) (UniProt P34969); conditions: Compound concentration 10.0 uM
[30] = target: Cyclin-dependent kinase 5 (Homo sapiens) (UniProt Q00535); conditions: Compound concentration 1000.0 nM
[31] = target: Vascular endothelial growth factor receptor 3 (Homo sapiens) (UniProt P35916); conditions: Compound concentration 1000.0 nM
[32] = target: Cyclin-dependent kinase 11A (Homo sapiens) (UniProt Q9UQ88); conditions: Compound concentration 1000.0 nM
[33] = target: Calcium/calmodulin-dependent protein kinase type IV (Homo sapiens) (UniProt Q16566); conditions: Compound concentration 1000.0 nM
[34] = target: Mitogen-activated protein kinase 10 (Homo sapiens) (UniProt P53779); conditions: Compound concentration 1000.0 nM
[35] = target: Wee1-like protein kinase 2 (Homo sapiens) (UniProt P0C1S8); conditions: Compound concentration 1000.0 nM
[36] = target: Serine/threonine-protein kinase MRCK alpha (Homo sapiens) (UniProt Q5VT25); conditions: Compound concentration 1000.0 nM
[37] = target: Tyrosine-protein kinase TXK (Homo sapiens) (UniProt P42681); conditions: Compound concentration 1000.0 nM
[38] = target: Serine/threonine-protein kinase PLK1 (Homo sapiens) (UniProt P53350); conditions: Compound concentration 1000.0 nM
[39] = target: Ribosomal protein S6 kinase alpha-4 (Homo sapiens) (UniProt O75676); conditions: Compound concentration 1000.0 nM
[40] = target: Tyrosine-protein kinase Yes (Homo sapiens) (UniProt P07947); conditions: Compound concentration 1000.0 nM
[41] = target: Mast/stem cell growth factor receptor Kit (Homo sapiens) (UniProt P10721); conditions: Compound concentration 1000.0 nM
[42] = target: Rho-associated protein kinase 2 (Homo sapiens) (UniProt O75116); conditions: Compound concentration 1000.0 nM
[43] = target: Tyrosine-protein kinase receptor TYRO3 (Homo sapiens) (UniProt Q06418); conditions: Compound concentration 1000.0 nM
[44] = target: Mitogen-activated protein kinase kinase kinase 12 (Homo sapiens) (UniProt Q12852); conditions: Compound concentration 1000.0 nM
[45] = target: Phosphatidylinositol 5-phosphate 4-kinase type-2 gamma (Homo sapiens) (UniProt Q8TBX8); conditions: Compound concentration 1000.0 nM

Chain of Interleukin-1 receptor-associated kinase 4 (Homo sapiens) (Q9NWZ3 whole entry): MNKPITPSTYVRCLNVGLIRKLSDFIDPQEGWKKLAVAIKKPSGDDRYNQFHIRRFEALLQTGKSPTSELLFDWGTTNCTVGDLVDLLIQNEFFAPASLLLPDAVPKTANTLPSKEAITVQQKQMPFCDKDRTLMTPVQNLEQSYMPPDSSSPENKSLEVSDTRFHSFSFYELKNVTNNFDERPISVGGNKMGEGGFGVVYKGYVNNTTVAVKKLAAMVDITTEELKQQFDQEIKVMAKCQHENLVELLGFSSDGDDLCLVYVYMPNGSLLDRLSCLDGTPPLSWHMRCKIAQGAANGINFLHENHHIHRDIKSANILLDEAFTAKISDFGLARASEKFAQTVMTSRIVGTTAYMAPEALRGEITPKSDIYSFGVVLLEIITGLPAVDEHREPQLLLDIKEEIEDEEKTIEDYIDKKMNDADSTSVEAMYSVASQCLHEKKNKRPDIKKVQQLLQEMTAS
Chain of Mitogen-activated protein kinase 10 (Homo sapiens) (P53779 whole entry): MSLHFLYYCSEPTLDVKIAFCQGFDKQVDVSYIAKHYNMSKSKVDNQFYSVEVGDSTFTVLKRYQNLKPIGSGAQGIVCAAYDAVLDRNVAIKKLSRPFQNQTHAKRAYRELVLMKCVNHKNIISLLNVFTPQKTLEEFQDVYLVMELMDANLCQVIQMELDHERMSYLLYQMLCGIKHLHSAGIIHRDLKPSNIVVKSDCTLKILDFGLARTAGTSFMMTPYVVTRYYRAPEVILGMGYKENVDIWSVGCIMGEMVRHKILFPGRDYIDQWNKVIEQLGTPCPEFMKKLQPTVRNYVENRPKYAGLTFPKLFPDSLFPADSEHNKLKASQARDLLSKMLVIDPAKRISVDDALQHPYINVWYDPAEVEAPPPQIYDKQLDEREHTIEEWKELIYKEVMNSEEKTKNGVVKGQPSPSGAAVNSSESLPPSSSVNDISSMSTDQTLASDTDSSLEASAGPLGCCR
Chain of Tyrosine-protein kinase Yes (Homo sapiens) (P07947 2-543 limits assumed): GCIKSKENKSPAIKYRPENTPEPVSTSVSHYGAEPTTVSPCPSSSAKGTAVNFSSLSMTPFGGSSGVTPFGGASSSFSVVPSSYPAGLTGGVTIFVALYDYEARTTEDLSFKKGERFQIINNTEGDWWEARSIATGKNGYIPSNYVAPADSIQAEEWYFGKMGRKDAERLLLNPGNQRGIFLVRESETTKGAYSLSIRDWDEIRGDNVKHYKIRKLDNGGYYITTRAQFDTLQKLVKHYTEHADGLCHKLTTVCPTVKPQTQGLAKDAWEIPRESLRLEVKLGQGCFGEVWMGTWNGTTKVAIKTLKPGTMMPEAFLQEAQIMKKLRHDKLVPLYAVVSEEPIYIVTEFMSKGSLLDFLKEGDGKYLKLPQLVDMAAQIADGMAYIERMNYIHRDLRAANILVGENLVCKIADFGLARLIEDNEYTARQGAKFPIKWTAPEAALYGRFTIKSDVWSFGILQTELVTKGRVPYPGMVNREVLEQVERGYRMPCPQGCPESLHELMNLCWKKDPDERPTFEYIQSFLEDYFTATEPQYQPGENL
Chain of Serine/threonine-protein kinase MRCK alpha (Homo sapiens) (Q5VT25 whole entry): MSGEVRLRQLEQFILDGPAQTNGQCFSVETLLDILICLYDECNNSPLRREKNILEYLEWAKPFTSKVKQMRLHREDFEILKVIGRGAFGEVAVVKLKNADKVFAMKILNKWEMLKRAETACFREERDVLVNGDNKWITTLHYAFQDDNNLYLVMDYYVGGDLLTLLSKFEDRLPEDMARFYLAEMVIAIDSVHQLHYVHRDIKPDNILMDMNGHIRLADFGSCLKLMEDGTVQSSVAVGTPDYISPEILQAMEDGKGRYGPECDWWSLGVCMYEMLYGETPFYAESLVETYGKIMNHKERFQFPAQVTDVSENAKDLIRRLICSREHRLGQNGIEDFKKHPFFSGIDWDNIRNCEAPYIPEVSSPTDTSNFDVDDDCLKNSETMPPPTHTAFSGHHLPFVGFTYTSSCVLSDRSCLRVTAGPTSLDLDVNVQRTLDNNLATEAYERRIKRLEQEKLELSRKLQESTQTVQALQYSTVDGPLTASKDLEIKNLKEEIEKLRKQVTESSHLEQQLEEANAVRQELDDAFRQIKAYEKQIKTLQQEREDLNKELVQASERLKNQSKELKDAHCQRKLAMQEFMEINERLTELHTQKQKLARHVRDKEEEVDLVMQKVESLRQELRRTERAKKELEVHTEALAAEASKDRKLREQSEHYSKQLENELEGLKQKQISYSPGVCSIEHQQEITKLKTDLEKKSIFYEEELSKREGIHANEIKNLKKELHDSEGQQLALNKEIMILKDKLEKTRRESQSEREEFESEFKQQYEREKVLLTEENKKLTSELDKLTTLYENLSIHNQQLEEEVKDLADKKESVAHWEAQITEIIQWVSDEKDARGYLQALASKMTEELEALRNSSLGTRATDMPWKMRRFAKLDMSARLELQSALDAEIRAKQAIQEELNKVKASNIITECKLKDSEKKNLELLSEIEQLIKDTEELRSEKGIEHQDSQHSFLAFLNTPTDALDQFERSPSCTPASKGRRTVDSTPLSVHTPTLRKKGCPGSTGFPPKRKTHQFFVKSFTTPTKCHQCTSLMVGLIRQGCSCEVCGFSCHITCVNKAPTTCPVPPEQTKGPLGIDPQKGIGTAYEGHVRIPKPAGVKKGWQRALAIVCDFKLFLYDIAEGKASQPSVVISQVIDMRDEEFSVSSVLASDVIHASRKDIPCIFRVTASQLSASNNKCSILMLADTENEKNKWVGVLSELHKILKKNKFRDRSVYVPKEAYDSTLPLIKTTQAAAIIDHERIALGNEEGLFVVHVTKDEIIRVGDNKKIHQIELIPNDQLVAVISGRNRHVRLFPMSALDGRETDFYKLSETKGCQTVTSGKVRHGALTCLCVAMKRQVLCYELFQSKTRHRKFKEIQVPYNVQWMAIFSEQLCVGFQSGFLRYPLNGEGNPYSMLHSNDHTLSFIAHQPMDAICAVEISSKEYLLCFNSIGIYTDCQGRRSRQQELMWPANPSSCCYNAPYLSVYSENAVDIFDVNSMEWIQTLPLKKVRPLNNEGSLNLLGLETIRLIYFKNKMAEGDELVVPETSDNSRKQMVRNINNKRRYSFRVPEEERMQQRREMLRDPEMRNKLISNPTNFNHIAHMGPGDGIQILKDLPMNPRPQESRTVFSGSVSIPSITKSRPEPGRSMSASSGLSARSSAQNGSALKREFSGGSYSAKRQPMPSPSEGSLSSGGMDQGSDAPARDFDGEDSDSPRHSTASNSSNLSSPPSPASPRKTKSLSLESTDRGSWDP
Chain of Cyclin-dependent kinase 11A (Homo sapiens) (Q9UQ88 whole entry): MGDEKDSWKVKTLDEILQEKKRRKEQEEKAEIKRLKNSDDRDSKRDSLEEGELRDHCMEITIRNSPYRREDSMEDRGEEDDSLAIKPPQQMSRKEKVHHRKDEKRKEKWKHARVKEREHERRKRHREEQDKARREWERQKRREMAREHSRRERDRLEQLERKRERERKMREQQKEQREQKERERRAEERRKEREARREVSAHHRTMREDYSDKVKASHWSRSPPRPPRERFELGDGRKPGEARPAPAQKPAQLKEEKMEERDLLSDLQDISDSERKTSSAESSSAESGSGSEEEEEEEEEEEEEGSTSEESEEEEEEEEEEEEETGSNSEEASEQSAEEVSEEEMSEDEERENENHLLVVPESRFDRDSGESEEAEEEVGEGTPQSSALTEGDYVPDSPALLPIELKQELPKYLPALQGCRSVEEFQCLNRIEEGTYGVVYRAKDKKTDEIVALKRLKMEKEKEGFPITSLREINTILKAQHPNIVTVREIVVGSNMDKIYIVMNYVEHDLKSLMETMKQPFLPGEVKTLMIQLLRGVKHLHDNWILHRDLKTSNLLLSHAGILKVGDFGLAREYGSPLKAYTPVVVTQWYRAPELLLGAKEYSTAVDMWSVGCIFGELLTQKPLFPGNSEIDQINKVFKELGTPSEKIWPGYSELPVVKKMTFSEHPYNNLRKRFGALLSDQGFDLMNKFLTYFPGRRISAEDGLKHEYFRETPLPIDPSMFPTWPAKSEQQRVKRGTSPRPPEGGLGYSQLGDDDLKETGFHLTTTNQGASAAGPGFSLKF
Chain of Tyrosine-protein kinase TXK (Homo sapiens) (P42681 whole entry): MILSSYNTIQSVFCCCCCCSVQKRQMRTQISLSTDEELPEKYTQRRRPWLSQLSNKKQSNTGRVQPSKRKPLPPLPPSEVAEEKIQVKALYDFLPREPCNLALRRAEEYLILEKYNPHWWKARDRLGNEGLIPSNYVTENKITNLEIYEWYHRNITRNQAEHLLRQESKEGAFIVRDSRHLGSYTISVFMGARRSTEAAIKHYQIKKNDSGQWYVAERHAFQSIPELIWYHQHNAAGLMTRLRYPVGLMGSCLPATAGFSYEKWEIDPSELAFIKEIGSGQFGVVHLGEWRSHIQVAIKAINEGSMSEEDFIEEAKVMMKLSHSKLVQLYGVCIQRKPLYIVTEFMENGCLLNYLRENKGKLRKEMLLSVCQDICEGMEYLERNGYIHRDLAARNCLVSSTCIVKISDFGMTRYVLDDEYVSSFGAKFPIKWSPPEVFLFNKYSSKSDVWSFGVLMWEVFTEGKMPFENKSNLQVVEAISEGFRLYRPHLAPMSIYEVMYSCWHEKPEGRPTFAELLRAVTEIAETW
Chain of Cyclin-dependent kinase 5 (Homo sapiens) (Q00535 whole entry, looked up): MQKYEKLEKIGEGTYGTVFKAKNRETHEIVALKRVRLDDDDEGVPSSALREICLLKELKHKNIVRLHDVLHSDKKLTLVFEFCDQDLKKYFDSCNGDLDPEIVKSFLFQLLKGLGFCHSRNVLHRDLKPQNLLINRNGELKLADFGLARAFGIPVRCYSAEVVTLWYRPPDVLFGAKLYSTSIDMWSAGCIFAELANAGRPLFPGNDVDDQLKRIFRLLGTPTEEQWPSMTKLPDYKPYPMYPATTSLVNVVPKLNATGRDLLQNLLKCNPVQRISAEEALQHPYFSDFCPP

**Q.** What does the source list for `Cc1nc(N2CC[C@@H](O)C2)ncc1-c1cc(C(F)(F)F)cc2[nH]ncc12` [TP-004]?
**A.** residual activity [1]: 100%; residual activity [2]: 53%; residual activity [3]: 53%; inhibition [4]: 22.3%; residual activity [5]: 90%; residual activity [6]: 84%; residual activity [7]: 73%; residual activity [8]: 100%; residual activity [9]: 68%; residual activity [10]: 98%; residual activity [11]: 100%; residual activity [12]: 63%; inhibition [13]: 75.2%; residual activity [14]: 100%; residual activity [15]: 100%; residual activity [16]: 99%; residual activity [17]: 92%; residual activity [18]: 100%; residual activity [19]: 93%; residual activity [20]: 94%; residual activity [21]: 88%; residual activity [22]: 100%; residual activity [23]: 94%; residual activity [24]: 73%; residual activity [25]: 88%; residual activity [26]: 71%; residual activity [27]: 81%; residual activity [28]: 100%; inhibition [29]: 10.8%; residual activity [30]: 99%; residual activity [31]: 100%; residual activity [32]: 100%; residual activity [33]: 100%; residual activity [34]: 72%; residual activity [35]: 100%; residual activity [36]: 100%; residual activity [37]: 100%; residual activity [38]: 64%; residual activity [39]: 84%; residual activity [40]: 90%; residual activity [41]: 67%; residual activity [42]: 77%; residual activity [43]: 66%; residual activity [44]: 99%; residual activity [45]: 100%
